Experiments:
[1] = target: human recombinant Aurora A (Homo sapiens (Human), UniProt O14965); assay: Aurora A Kinase Biochemical Assay (ADP-Glo); details: ratio of Aurora A IC50 to PLK4 IC50 (selectivity)
Experimental: (§1) Activity of human recombinant Aurora A (ThermoFisher, cat #PR5935A) was measured by quantification of adenosine diphosphate (ADP) using the ADP-Glo Kinase Assay Kit (Promega, cat #V9102). […] 5 µL of 5.0 nM Aurora A in assay buffer (50 mM HEPES, pH 7.5, 0.01% Brij-35, 0.01% BSA, 10 mM MgCl2, 1 mM EGTA, 1 mM DTT) was added to the plates. Test compounds and Aurora A were incubated for 15 minutes at room temperature (RT). […] Reactions were stopped and the remaining ATP depleted by adding 10uL of ADP-Glo reagent (Promega, cat#V912B) and incubating for 40 minutes at RT. The simultaneous conversion of the remaining ADP to ATP and measurement of the newly synthesized ATP was achieved by addition of 20 µL Kinase Detection reagent (Promega, cat #V914B), incubation for 30 min at RT, and luminescence detection using the EnVision plate reader (PerkinElmer). […] The IC50 values reported in Table 2 were determined using four parameter non-linear regression curve fit.

human recombinant PLK4 = human recombinant PLK4 (Homo sapiens (Human), UniProt O00444); assay: PLK4 Biochemical Assay (ADP-Glo); details: 0.5 nM PLK4, 8.0 µM ATP, 4.7 µM MBP, 6 hours at RT
Experimental: as §1, with “recombinant PLK4” for “recombinant Aurora A”, “cat #PV6396)” for “cat #PR5935A)”, “of 1.0” for “of 5.0”, “nM PLK4 protein” for “nM Aurora A”, “and PLK4” for “and Aurora A”, “adding 10 µL” for “adding 10uL”

[2] = target: human recombinant Aurora B (Homo sapiens (Human), UniProt Q96GD4); assay: Aurora B Kinase Biochemical Assay (ADP-Glo); details: ratio of Aurora B IC50 to PLK4 IC50 (selectivity)
Experimental: as §1, with “Aurora B” for “Aurora A”, “cat #PR9210B)” for “cat #PR5935A)”, “of 20” for “of 5.0”

human recombinant Aurora A, sequence (O14965 whole entry): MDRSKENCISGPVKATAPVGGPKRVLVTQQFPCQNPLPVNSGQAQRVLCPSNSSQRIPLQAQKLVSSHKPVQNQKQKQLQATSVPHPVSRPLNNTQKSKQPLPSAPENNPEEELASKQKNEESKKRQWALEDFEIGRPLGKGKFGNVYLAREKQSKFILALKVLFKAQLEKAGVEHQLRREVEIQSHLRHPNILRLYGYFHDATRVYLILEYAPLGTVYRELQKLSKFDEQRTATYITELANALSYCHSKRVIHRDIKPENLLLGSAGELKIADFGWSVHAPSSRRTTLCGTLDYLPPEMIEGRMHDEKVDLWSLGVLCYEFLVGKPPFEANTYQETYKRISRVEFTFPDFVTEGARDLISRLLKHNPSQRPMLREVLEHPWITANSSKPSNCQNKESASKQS
human recombinant PLK4, sequence (O00444 whole entry): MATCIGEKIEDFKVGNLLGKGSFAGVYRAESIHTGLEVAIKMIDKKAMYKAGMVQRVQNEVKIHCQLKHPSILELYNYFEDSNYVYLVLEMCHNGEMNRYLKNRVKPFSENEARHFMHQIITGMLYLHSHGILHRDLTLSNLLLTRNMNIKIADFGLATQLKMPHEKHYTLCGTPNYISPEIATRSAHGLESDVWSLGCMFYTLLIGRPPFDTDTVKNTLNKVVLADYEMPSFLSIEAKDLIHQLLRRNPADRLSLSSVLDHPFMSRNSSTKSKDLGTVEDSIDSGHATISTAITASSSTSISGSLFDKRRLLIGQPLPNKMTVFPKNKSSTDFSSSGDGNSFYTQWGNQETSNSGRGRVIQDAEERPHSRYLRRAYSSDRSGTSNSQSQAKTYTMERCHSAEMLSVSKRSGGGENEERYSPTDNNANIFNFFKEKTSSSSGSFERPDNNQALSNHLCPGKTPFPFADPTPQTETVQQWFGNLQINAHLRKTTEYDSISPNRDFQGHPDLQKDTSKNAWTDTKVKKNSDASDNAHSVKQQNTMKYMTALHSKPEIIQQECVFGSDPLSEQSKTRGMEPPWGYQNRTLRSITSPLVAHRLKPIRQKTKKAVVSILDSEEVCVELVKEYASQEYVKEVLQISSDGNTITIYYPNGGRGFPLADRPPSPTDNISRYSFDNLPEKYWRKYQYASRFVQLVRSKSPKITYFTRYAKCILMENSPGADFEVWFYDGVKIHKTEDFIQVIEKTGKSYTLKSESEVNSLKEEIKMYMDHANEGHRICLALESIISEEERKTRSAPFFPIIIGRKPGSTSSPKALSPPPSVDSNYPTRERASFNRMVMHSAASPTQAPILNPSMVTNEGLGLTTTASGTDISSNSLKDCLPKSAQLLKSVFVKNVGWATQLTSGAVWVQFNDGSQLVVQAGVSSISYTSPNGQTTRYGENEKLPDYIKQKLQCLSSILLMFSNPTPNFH
human recombinant Aurora B, sequence (Q96GD4 whole entry): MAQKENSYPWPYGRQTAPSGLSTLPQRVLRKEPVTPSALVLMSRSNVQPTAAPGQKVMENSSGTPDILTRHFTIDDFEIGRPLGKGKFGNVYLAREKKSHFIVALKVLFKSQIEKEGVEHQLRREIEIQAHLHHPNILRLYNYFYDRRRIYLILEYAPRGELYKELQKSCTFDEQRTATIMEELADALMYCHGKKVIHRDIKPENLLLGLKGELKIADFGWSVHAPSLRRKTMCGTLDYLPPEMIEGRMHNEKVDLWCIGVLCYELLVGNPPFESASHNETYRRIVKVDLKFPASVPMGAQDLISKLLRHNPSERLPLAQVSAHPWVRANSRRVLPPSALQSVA

Compound	[Aurora A IC50 (nM)]/[PLK4 IC50 (nM)] [1]	IC50 (human recombinant PLK4) [nM]	[Aurora B IC50 (nM)]/[PLK4 IC50 (nM)] [2]
COc1ccc2c(c1)[C@]1(C[C@H]1c1ccc3c(Nc4cc(OC)ncn4)n[nH]c3c1)C(=O)N2 [Example 14, (1R,2S)-5′-methoxy-2-{3-[(6-methoxypyrimidin-4-yl)amino]-1H-indazol-6-yl}spiro[cyclopropane-1,3′-indol]-2′(1′H)-one]	74.16	36	3.866
COc1ccc2c(c1)[C@]1(C[C@H]1c1ccc3c(Nc4cccc5c4OCC5)n[nH]c3c1)C(=O)N2 [Example 16, (1R,2S)-2-{3-[(2,3-dihydro-1-benzofuran-7-yl)amino]-1H-indazol-6-yl}-5′-methoxyspiro[cyclopropane-1,3′-indol]-2′(1′H)-one]	605.6855	2.18	11.76
COc1ccc2c(c1)[C@]1(C[C@H]1c1ccc3c(Nc4ncccc4OC)n[nH]c3c1)C(=O)N2 [Example 17, (1R,2S)-5′-methoxy-2-{3-[(3-methoxypyridin-2-yl)amino]-1H-indazol-6-yl}spiro[cyclopropane-1,3′-indol]-2′(1′H)-one]	1145.911	4.3	34.9
COc1ccc2c(c1)[C@]1(C[C@H]1c1ccc3c(Nc4cn(C)nc4OC)n[nH]c3c1)C(=O)N2 [Example 25, (1R,2S)-5′-methoxy-2-{3-[(3-methoxy-1-methyl-1H-pyrazol-4-yl)amino]-1H-indazol-6-yl}spiro[cyclopropane-13′-indol]-2′(1′H)-one]	249.6489	34.2	28.1
COc1ccc2c(c1)[C@]1(C[C@H]1c1ccc3c(Nc4cnn5c4OCC5)n[nH]c3c1)C(=O)N2 [Example 30, (1R,2S)-2-{3-[(2,3-dihydropyrazolo[5,1-b][1,3]oxazol-7-yl)amino]-1H-indazol-6-yl}-5′-methoxyspiro[cyclopropane-1,3′-indol]-2′(1′H)-one]	36.2	31.2	6.188
COc1ccc2c(c1)[C@]1(C[C@H]1c1ccc3c(Nc4cccc5c4OCC5=O)n[nH]c3c1)C(=O)N2 [Example 31, (1R,2S)-5′-methoxy-2-{3-[(3-oxo-2,3-dihydro-1-benzofuran-7-yl)amino]-1H-indazol-6-yl}spiro[cyclopropane-1,3′-indol]-2′(1′H)-one]	207.053	3.02	22.17
COc1ccc2c(c1)[C@]1(C[C@H]1c1ccc3c(Nc4nccc5c4OCC5)n[nH]c3c1)C(=O)N2 [Example 32, (1R,2S)-2-{3-[(2,3-dihydrofuro[2,3-c]pyridin-7-yl)amino]-1H-indazol-6-yl}-5′-methoxyspiro[cyclopropane-1,3′-indol]-2′(1′H)-one]	911.8842	3.94	17.5546
COc1ccc2c(c1)[C@]1(C[C@H]1c1ccc3c(Nc4nccc5c4OC[C@@H]5CO)n[nH]c3c1)C(=O)N2 [Example 33, (1R,2S)-2-(3-{[(3S)-3-(hydroxymethyl)-2,3-dihydrofuro[2,3-c]pyridin-7-yl]amino}-1H-indazol-6-yl)-5′-methoxyspiro[cyclopropane-1,3′-indol]-2′(1′H)-one]	355.9465	5.91	8.474
COc1ccc2c(c1)[C@]1(C[C@H]1c1ccc3c(Nc4cc(N5CC(OC)C5)ncn4)n[nH]c3c1)C(=O)N2 [Example 35, (1R,2S)-5′-methoxy-2-(3-{[6-(3-methoxyazetidin-1-yl)pyrimidin-4-yl]amino}-1H-indazol-6-yl)spiro[cyclopropane-1,3′-indol]-2′(1′H)-one]	67.3	7.53	2.162
COc1ccc2c(c1)[C@]1(C[C@H]1c1ccc3c(Nc4cc(N5CC(O)C5)ncn4)n[nH]c3c1)C(=O)N2 [Example 36, (1R,2S)-2-(3-{[6-(3-hydroxyazetidin-1-yl)pyrimidin-4-yl]amino}-1H-indazol-6-yl)-5′-methoxyspiro[cyclopropane-1,3′-indol]-2′(1′H)-one]	218.2083	6.17	5.701
COc1ccc2c(c1)[C@]1(C[C@H]1c1ccc3c(Nc4ncnc(N5C6CCC5COC6)c4OC)n[nH]c3c1)C(=O)N2 [Example 37, (1R,2S)-2-(3-((6-(3-oxa-8-azabicydo[3.2.1]octan-8-yl)-5-methoxypyrimidin-4-yl)amino)-1H-indazol-6-yl)-5′-methoxyspiro[cydopropane-1,3′-indolin]-2′-one]	1799.358	12.5	49.51
COc1ccc2c(c1)[C@]1(C[C@H]1c1ccc3c(Nc4cc(OCCO)ncn4)n[nH]c3c1)C(=O)N2 [Example 38, (1R,2S)-2-(3-{[6-(2-hydroxyethoxy)pyrimidin-4-yl]amino}-1H-indazol-6-yl)-5′-methoxyspiro[cyclopropane-1,3′-indol]-2′(1′H)-one]	43.69	14.1	2.761
COc1ccc2c(c1)[C@]1(C[C@H]1c1ccc3c(Nc4cc(N5CCS(=O)(=O)CC5)ncn4)n[nH]c3c1)C(=O)N2 [Example 39, (1R,2S)-2-(3-((6-(1,1-dioxidothiomorpholino)pyrimidin-4-yl)amino)-1H-indazol-6-yl)-5′-methoxyspiro[cyclopropane-1,3′-indolin]-2′-one]	30.38	26.4	1.018
COc1ccc2c(c1)[C@]1(C[C@H]1c1ccc3c(Nc4cc(N5CCCOCC5)ncn4)n[nH]c3c1)C(=O)N2 [Example 40, (1R,2S)-5′-methoxy-2-(3-{[6-(1,4-oxazepan-4-yl)pyrimidin-4-yl]amino}-1H-indazol-6-yl)spiro[cyclopropane-1,3′-indol]-2′(1′H)-one]	67.06	15.2	2.783
COc1ccc2c(c1)[C@]1(C[C@H]1c1ccc3c(Nc4ncnc(N5CCC5)c4OC)n[nH]c3c1)C(=O)N2 [Example 42, (1R,2S)-2-(3-{[6-(azetidin-1-yl)-5-methoxypyrimidin-4-yl]amino}-1H-indazol-6-yl)-5′-methoxyspiro[cyclopropane-1,3′-indol]-2′(1′H)-one]	1053.808	36.2	42.3
COc1ccc2c(c1)[C@]1(C[C@H]1c1ccc3c(Nc4ncnc(N5CC(O)C5)c4OC)n[nH]c3c1)C(=O)N2 [Example 43, (1R,2S)-2-(3-{[6-(3-hydroxyazetidin-1-yl)-5-methoxypyrimidin-4-yl]amino}-1H-indazol-6-yl)-5′-methoxyspiro[cyclopropane-1,3′-indol]-2′(1′H)-one]	1347.136	14.5	21.9

— patent US20230365537A1, “POLO LIKE KINASE 4 INHIBITORS” (ORIC Pharmaceuticals, Inc., priority 2021, published 2023)
